Assay results taken from US6432954B1, “Pharmaceutical compositions and methods for use” (Targacept, Inc., priority 2000, dated 2002).

What was measured:
Type in all cases: physicochemical
[1] = Water absorption (hygroscopicity) of the salt
Text: (§1) The salts of the present invention which are derived from aryl substituted amines and 2,3-diacyl-tartaric acids have a number of advantages over other salts derived from aryl substituted amines and other acids, such as fumaric acid or galactaric acid. […] As such, the di-p-toluoyl-D-tartrate salt of (2S)-(4E)-N-methyl-5-[3-(5-isopropoxypyridin)yl)]-4-penten-2-amine is a free-flowing crystalline powder; and such a property is a definite advantage for pharmaceutical formulation development and pharmaceutical manufacturing. If necessary, this salt can be milled to an acceptable particle size range for pharmaceutical processing. […] The salt is compatible with a wide range of excipients that might be chosen for the manufacture of solid oral dosage forms. This is especially so for those exicipients, such polysaccharide derivatives, that are pharmaceutically defined hydrates and those with only loosely bound surface water. As an illustration, salts derived from certain aryl substituted amines, such as E-metanicotine and fumaric acid are prone to the formation of impurities within the salt. For example, impurities arise from the Michael addition reaction of the secondary amine in E-metanicotine to the olefin in fumaric acid. These impurities lower the chemical purity of the salt and adversely affect the chemical integrity of the salt upon long-term storage. […]

[2] = Physical and chemical stability of the salt
Text: as §1

[3] = Water solubility of the salt
Text: as §1

amount of water absorbed ([1]; 40° C. and 70% relative humidity)	stability [2]	amount of water absorbed ([1]; room temperature and 90% relative humidity)	water solubility [3]	Structure (SMILES)
11.8%	–	–	–	CN[C@@H](C)C/C=C/c1cncc(OC(C)C)c1.CN[C@@H](C)C/C=C/c1cncc(OC(C)C)c1.O=C(O)[C@@H](O)[C@H](O)[C@H](O)[C@@H](O)C(=O)O [hemigalactarate of (2S)-(4E)-N-methyl-5-[3-(5-isopropoxypyridin)yl)]-4-penten-2-amine, reference compound]
–	physically and chemically stable	3.2%	water soluble	CN[C@@H](C)C/C=C/c1cncc(OC(C)C)c1 [Sample No. 2, (2S)-(4E)-N-methyl-5-[3-(5-isopropoxypyridin)yl]-4-penten-2-amine hemi-(di-p-toluoyl-D-tartrate)]
